Assay results published in ChEMBL document CHEMBL5465560, “Selectivity Literature for EUbOPEN Chemogenomic Library” (2024).

Tests used:
[1] = biological target: Serine/threonine-protein kinase SBK1 (Homo sapiens) (UniProt Q52WX2); test: Selectivity interaction (KinomeScan (DiscoverX)) EUB0000092b SBK1; conditions: at 10 µM
[2] = biological target: Death-associated protein kinase 2 (Homo sapiens) (UniProt Q9UIK4); test: Selectivity interaction (Upstate Kinase Profiler service (Millipore)) EUB0000056c DAPK2; conditions: at 1 µM
Chain of Death-associated protein kinase 2 (Homo sapiens) (Q9UIK4 whole entry, looked up): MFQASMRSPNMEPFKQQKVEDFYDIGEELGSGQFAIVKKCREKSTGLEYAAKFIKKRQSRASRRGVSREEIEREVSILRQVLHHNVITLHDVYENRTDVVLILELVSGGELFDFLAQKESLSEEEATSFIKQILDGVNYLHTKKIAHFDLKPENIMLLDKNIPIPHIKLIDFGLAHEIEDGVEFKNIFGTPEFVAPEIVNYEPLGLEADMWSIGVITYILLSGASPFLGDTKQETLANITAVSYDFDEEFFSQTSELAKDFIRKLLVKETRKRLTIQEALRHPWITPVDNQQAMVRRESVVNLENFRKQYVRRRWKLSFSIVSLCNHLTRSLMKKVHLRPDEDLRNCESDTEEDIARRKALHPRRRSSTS

[3] = biological target: Mitogen-activated protein kinase 10 (Homo sapiens, UniProt P53779); test: Selectivity interaction (Kinase panel (DSF assay)) EUB0001559a MAPK10
Chain of Mitogen-activated protein kinase 10 (P53779 whole entry): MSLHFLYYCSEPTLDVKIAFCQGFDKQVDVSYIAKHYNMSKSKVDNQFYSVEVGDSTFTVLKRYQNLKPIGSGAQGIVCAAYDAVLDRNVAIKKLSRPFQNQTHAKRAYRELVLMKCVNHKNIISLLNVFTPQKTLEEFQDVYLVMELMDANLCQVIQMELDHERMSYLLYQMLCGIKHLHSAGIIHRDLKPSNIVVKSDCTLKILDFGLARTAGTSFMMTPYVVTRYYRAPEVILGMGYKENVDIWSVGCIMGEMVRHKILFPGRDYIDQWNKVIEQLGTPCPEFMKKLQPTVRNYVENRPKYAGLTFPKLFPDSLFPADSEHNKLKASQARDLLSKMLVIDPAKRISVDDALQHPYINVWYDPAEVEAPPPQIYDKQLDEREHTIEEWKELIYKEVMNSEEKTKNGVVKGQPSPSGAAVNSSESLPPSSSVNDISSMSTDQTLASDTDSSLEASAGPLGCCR

[4] = biological target: T1, Tyrosine-protein kinase receptor TYRO3 (Homo sapiens) (UniProt Q06418); test: Selectivity interaction (KinomeScan (DiscoverX)) EUB0001079a TYRO3; conditions: at 1 µM
T1 sequence (whole entry): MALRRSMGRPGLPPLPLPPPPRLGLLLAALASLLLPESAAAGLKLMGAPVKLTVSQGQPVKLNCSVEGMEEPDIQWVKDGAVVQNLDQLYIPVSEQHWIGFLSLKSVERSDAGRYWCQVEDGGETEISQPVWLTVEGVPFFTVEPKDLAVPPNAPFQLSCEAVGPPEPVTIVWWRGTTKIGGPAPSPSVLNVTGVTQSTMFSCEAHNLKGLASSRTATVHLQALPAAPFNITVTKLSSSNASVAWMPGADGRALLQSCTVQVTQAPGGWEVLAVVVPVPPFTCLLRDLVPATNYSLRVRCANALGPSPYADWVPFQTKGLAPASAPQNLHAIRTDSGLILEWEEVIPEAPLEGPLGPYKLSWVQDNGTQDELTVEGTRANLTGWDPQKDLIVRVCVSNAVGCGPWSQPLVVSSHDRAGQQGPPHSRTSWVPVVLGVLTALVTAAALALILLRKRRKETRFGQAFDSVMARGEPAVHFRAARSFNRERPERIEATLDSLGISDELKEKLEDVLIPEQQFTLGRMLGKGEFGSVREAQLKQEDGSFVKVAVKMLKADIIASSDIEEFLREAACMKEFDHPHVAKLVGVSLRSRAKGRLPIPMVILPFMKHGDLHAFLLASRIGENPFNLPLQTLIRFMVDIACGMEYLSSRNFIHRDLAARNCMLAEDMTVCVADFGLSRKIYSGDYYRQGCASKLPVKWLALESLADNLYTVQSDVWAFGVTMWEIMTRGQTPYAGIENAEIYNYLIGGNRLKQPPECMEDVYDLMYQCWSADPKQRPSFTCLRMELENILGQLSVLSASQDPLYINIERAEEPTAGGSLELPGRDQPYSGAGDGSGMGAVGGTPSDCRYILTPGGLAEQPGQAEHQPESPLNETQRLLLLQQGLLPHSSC

[5] = biological target: T2, Dual specificity mitogen-activated protein kinase kinase 5 (Homo sapiens) (UniProt Q13163); test: Selectivity interaction (Kinase panel (KiNativ target engagement assay in Jurkat cells)) EUB0001635a MAP2K5; assay type: cell-based; conditions: Selectivity number of off-targets 0.0, Selectivity number of targets 233.0, Source Knowledge https://www.sciencedirect.com/science/article/pii/S2451945619300674?via%3Dihub, at 1 µM
T2 sequence (whole entry): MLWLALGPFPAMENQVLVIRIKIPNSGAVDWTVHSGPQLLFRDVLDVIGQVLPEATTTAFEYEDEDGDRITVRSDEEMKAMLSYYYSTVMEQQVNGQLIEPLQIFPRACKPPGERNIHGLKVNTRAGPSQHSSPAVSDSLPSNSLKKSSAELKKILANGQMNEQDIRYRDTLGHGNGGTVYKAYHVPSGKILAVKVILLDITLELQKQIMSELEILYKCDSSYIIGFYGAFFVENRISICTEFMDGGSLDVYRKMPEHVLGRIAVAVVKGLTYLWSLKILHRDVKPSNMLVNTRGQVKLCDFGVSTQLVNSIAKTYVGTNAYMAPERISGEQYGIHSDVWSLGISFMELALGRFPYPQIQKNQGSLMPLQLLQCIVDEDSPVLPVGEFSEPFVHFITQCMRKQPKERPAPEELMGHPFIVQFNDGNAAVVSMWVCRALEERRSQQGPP

[6] = biological target: Serine/threonine-protein kinase NIM1 (Homo sapiens, UniProt Q8IY84); test: Selectivity interaction (KinomeScan (DiscoverX)) EUB0000666a NIM1K; conditions: at 10 µM
Chain of Serine/threonine-protein kinase NIM1 (Q8IY84 whole entry): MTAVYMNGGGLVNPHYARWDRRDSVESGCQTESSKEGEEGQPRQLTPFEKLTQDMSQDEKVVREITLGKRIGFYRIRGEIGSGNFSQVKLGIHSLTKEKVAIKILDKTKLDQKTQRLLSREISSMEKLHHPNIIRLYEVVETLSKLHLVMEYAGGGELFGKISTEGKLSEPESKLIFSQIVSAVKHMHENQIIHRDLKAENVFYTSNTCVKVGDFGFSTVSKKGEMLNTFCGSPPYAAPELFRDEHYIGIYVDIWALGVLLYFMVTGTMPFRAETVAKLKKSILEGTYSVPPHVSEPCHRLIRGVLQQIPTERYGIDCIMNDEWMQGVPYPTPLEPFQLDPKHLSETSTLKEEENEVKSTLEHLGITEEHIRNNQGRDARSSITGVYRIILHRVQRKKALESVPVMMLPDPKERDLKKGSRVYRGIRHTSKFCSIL

[7] = biological target: Serine/threonine-protein kinase Nek7 (Homo sapiens) (UniProt Q8TDX7); conditions: at 10 µM
Chain of Serine/threonine-protein kinase Nek7 (Homo sapiens) (Q8TDX7 whole entry, looked up): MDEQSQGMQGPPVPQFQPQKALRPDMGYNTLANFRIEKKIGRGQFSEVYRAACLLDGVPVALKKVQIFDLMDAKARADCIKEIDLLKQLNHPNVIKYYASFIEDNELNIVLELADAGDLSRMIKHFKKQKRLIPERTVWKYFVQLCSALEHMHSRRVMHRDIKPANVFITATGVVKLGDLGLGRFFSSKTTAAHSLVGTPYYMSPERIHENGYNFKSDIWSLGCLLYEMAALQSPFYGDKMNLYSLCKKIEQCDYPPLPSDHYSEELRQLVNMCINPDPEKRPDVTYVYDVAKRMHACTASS

[8] = biological target: Ribosomal protein S6 kinase alpha-1 (Homo sapiens, UniProt Q15418); test: Selectivity interaction (ActivX KiNativ screen (kinase selectivity in THP-1 cell lysates)) EUB0000639a RPS6KA1; assay type: subcellular; conditions: lysate, at 1 µM
[9] = biological target: Serine/threonine-protein kinase MRCK gamma (Homo sapiens) (UniProt Q6DT37); test: Selectivity interaction (KinomeScan (DiscoverX)) EUB0000607a CDC42BPG; conditions: at 10 µM
Chain of Serine/threonine-protein kinase MRCK gamma (Homo sapiens) (Q6DT37 whole entry, canonical isoform): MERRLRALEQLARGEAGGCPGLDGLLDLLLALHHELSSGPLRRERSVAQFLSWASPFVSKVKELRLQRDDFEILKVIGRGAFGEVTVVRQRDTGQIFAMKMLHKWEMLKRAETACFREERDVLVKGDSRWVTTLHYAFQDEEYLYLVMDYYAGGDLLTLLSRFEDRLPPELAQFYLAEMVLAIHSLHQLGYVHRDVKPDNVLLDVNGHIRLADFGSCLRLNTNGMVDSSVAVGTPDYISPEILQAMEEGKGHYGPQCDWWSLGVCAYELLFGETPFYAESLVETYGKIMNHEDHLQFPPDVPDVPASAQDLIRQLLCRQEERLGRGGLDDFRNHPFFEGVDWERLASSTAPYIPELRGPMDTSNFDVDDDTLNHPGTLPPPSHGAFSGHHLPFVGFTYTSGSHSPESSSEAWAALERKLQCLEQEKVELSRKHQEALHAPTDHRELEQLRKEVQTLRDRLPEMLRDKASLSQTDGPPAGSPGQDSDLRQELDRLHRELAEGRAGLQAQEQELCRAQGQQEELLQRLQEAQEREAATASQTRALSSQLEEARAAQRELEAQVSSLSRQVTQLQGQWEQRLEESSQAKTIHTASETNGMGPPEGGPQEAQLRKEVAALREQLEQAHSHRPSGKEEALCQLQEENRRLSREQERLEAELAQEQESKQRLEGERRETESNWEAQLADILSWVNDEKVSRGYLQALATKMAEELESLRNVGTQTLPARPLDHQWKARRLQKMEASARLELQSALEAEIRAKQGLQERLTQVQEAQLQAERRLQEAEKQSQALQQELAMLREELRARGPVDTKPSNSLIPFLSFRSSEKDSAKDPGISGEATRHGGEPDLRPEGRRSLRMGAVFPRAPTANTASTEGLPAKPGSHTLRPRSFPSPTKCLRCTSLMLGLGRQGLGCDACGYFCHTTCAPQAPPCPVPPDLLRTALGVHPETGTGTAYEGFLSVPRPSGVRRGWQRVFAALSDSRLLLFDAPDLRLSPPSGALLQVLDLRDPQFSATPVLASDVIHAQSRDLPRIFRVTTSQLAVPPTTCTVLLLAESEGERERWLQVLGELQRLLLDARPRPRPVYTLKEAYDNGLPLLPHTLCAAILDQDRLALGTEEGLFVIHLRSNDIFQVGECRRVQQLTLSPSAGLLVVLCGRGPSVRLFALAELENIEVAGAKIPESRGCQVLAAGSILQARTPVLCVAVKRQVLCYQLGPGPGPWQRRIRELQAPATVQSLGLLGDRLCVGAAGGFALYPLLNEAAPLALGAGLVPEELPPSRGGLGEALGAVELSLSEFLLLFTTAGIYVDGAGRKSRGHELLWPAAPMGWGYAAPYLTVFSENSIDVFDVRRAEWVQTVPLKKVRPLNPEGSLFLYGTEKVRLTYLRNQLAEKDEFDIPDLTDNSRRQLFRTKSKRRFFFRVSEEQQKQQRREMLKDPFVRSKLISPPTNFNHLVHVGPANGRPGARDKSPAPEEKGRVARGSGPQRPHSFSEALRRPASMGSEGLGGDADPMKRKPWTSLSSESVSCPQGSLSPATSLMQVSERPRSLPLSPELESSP

[10] = biological target: Casein kinase I isoform gamma-3 (Homo sapiens) (UniProt Q9Y6M4); test: Selectivity interaction (KinomeScan (DiscoverX)) EUB0001049a CSNK1G3; conditions: at 1 µM
Chain of Casein kinase I isoform gamma-3 (Homo sapiens) (Q9Y6M4 whole entry, looked up, canonical isoform): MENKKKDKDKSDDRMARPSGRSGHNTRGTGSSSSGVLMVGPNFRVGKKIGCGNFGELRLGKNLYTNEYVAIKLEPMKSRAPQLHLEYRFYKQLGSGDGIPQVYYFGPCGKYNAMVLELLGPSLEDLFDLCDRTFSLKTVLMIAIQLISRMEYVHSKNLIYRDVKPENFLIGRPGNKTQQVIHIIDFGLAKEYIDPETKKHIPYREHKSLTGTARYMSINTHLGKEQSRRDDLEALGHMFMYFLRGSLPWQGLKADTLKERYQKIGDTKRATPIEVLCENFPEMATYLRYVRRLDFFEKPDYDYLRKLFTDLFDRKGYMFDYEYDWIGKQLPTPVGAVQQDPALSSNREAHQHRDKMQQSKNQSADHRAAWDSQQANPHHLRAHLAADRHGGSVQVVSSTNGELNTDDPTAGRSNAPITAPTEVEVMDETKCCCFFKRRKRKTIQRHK

[11] = biological target: Interferon-induced, double-stranded RNA-activated protein kinase (Homo sapiens) (UniProt P19525); test: Selectivity interaction (KinomeScan (DiscoverX)) EUB0001049a EIF2AK2; conditions: at 1 µM
Chain of Interferon-induced, double-stranded RNA-activated protein kinase (Homo sapiens) (P19525 whole entry): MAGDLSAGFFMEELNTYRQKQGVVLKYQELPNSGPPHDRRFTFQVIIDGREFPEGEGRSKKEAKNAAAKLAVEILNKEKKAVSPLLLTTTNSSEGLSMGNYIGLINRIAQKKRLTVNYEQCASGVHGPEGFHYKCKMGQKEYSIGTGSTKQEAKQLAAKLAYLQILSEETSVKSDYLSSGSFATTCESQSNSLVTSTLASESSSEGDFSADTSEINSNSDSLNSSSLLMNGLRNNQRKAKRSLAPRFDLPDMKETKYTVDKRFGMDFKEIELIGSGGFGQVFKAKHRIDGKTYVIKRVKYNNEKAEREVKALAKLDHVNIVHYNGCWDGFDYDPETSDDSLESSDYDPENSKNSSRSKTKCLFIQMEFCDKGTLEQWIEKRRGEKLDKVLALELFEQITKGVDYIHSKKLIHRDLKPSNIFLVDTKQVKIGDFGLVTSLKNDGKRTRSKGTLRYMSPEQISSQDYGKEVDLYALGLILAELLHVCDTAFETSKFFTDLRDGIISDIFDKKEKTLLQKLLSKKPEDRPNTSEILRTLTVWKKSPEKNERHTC

[12] = biological target: Tyrosine-protein kinase SYK (Homo sapiens, UniProt P43405); test: Selectivity interaction (KinomeScan (DiscoverX)) EUB0001049a SYK; conditions: at 1 µM
[13] = biological target: Glycogen synthase kinase-3 beta (Homo sapiens, UniProt P49841); test: Selectivity interaction (Kinase panel (literature)) EUB0001199aCl GSK3B; conditions: at 1 µM
Chain of Glycogen synthase kinase-3 beta (P49841 whole entry, looked up): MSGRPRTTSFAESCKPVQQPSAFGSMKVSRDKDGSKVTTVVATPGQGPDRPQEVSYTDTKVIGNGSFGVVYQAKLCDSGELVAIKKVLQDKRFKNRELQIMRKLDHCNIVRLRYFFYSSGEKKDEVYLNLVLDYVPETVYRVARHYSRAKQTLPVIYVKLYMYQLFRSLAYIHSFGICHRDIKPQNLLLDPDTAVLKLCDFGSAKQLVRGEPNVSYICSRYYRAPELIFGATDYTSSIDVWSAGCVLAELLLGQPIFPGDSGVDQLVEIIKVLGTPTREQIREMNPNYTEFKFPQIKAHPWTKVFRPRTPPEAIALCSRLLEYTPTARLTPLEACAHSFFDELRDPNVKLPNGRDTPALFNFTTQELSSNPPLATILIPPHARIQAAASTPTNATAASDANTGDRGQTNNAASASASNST

[14] = biological target: T3, NUAK family SNF1-like kinase 2 (Homo sapiens) (UniProt Q9H093); test: Selectivity interaction (ActivX KiNativ screen (ex vivo kinase selectivity in human PBMCs)) EUB0001619a NUAK2; assay type: cell-based; conditions: PBMC, at 1 µM
T3 sequence (whole entry): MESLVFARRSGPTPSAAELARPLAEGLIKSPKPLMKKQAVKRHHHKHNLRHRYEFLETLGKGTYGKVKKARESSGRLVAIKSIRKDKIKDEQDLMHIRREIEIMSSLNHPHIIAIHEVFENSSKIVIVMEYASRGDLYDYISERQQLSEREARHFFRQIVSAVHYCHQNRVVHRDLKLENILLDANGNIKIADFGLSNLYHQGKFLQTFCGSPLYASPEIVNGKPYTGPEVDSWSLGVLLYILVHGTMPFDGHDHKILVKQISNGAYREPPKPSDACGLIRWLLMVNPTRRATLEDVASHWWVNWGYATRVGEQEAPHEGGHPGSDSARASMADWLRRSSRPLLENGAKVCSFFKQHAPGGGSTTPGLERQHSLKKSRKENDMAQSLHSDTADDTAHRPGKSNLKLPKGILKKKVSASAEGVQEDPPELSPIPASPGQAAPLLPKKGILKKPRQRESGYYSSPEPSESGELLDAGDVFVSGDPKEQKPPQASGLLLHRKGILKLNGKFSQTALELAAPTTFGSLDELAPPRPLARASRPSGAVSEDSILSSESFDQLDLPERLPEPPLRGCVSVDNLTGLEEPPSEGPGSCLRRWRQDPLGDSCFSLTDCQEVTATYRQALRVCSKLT

Chain of Serine/threonine-protein kinase SBK1 (Homo sapiens) (Q52WX2 whole entry): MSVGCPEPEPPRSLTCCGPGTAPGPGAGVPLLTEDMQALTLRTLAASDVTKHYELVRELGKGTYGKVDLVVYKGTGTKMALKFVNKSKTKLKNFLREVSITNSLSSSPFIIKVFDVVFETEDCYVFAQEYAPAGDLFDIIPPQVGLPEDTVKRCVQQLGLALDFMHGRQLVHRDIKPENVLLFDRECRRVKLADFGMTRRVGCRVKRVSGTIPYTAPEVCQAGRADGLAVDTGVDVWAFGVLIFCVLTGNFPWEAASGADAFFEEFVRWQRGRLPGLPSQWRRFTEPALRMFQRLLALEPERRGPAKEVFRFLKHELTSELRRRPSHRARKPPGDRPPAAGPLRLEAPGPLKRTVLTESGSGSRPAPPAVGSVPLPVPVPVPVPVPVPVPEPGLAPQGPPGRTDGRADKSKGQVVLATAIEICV

CCC(=O)N1CCN(c2ccc(-n3c(=O)ccc4cnc5ccc(-c6cnc7ccccc7c6)cc5c43)cc2C(F)(F)F)CC1
% of control [1]: 88%

Cc1ccc(-c2ccc3c(ccc4sc5c(c43)NC[C@@H](C)NC5=O)n2)cn1
% of inhibition [2]: 30%

CN(C(=O)c1cnn2cccnc12)c1cc2c(cc1N1CCOCC1)C(=O)N(C[C@@H](F)C(C)(C)O)C2
dTM [3]: -0.8 K

Nc1cnc(N2CCc3cc(S(=O)(=O)Nc4c(F)cc(Cl)cc4F)cc(N4CCCC4=O)c32)nc1 [TP-020n]
% of control [4]: 100%

C=CC(=O)Nc1ccc(C(=O)Nc2[nH]nc3c2CN(C(=O)N[C@H](CN(C)C)c2ccccc2)C3(C)C)cc1
% of engagement [5]: 5.3%

O=C(NOC[C@H](O)CO)c1ccc(F)c(F)c1Nc1ccc(I)cc1F
% of control [6]: 100%

Cc1cc([C@@H](C)Nc2ccccc2C(=O)O)c2nc(N3CCOCC3)cc(=O)n2c1 [AZD-6482]
% of control [7]: 100%

CC[C@@H]1[C@H](F)C(=O)N[C@@H]1COc1nccc2cc(C(N)=O)c(OC)cc12 [ZIMLOVISERTIB]
% of inhibition [8]: 8.6%

CNC(=O)Nc1ccc(-c2nc(N3CC4CCC(C3)O4)c3cnn(C4CCC5(CC4)OCCO5)c3n2)cc1
% of control [9]: 84%

COc1cc(Nc2nc(C)cc(-c3cnn4nc(OC)ccc34)n2)cc(C(F)(F)F)c1
% of control [10]: 98%
% of control [11]: 100%
% of control [12]: 100%

CN1Cc2nccc(-c3cn(C)nc3-c3ccc(F)cc3)c2C1=O
% of inhibition [13]: 1%

N#Cc1cccc(-c2c[nH]c3ncnc(N4CCOCC4)c23)c1
% of inhibition [14]: 18%
